# In paper PMC7138307 (PLoS ONE, 2020):
# Like-named read-outs stand apart in the source and are kept apart here.
# Test: Free drug in the brain after hypothermia experiment
# Type: in vivo
# Settings: C57Bl/6, mouse, intraperitoneal, one hour after dosing
# Protocol: Following hypothermia induction, 200–300 μL of blood was collected via cardiac punch and transferred to K2EDTA-treated BD Microtainers (Becton Dickinson and Co., Franklin Lakes, NJ). Mice were sacrificed via decapitation and brains were quickly removed and bisected sagitally. The right cortices, were isolated, placed into 2 mL microtubes along with a single 5 mm stainless steel bead and the left cortices were placed into 2 mL Lysing Matrix A tubes (MP Biomedicals, Santa Ana, CA). Both tubes were immediately snap frozen in liquid nitrogen. The whole blood-containing microtainers were centrifuged (2000 x g, 5 minutes) and plasma was transferred to 96-well plates for pharmacokinetic determination. […] The protein content of each sample was quantified using a Direct Detect Infrared Spectrometer (EMD Millipore Corp., Burlington, MA).
# In vitro plasma and brain protein binding values were generated via the Rapid Equilibrium Dialysis method. […] At the conclusion of incubation, samples were taken from both matrix and buffered compartments, matrix-matched using blank buffer and matrix, extracted with acetonitrile, diluted with water, and analyzed utilizing an Agilent RapidFire 365 high-throughput LC coupled with MS/MS detection via an AB Sciex 5500. Free fractions (fu) were then calculated by comparing peak-area ratios of matrix and buffered compartments. […]
smiles,measurement,setting,value
CCC(C)(O)C#Cc1cc2c(ccn2-c2ccnc(N)n2)cn1 (centres unmarked) [BIIB-TTBK1i],concentration at 1 h,"25mg/kg I.P., read-out: concentration of free drug in the brain",207 nM
same,concentration at 1 h,"50mg/kg I.P., read-out: average free drug in the brain",602 nM
